These results are taken from patent US8063051B2, “9-substituted-8-oxo-adenine compounds as toll-like receptor (TLR7) modulators” (AstraZeneca AB, priority 2007, dated 2011).

This assay addresses T1, Recombinant human TLR7 (Homo sapiens, UniProt Q9NYK1).
T1 construct: expressed in transfected cells; host or cells: HEK293 cell line stably expressing the pNiFty2-SEAP reporter plasmid; TLR7 in vector pUNO, blasticidin selection
T1 sequence (Q9NYK1 27-1049): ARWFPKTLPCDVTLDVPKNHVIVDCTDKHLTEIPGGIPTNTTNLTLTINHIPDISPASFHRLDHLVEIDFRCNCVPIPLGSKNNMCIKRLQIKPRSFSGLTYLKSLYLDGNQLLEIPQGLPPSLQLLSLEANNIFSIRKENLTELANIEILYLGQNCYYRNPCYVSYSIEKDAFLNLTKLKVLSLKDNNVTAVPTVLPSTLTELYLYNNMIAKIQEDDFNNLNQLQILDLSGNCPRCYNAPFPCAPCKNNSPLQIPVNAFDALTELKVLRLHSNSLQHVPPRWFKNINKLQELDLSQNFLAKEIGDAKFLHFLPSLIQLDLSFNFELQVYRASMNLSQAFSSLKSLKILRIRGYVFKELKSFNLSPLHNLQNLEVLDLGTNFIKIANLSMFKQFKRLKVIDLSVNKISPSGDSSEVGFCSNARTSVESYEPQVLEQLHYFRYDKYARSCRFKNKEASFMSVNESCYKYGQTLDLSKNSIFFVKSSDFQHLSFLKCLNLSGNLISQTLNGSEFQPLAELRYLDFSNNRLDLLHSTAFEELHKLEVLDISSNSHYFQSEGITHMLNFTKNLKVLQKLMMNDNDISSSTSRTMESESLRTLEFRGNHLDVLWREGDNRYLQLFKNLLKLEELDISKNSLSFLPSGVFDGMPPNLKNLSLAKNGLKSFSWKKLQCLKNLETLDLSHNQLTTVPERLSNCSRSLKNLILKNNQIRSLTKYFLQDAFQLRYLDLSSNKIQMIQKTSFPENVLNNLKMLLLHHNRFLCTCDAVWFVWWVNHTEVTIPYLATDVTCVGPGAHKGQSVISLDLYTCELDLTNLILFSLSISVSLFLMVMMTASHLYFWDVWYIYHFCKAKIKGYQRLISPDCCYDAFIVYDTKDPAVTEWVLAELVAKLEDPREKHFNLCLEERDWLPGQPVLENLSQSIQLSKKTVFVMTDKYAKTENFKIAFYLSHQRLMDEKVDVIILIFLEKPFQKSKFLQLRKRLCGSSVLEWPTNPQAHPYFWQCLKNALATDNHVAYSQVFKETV
As to the kind of experiment: Human TLR7 assay (SEAP reporter in HEK293 cells). The class given is cell-based. Particulars: HEK293 cell line stably expressing human TLR7 and pNiFty2-SEAP reporter; SEAP induction after overnight incubation at 37° C., 0.1% (v/v) DMSO. From the text: Recombinant human TLR7 was stably expressed in a HEK293 cell line already stably expressing the pNiFty2-SEAP reporter plasmid; integration of the reporter gene was maintained by selection with the antibiotic zeocin. The most common variant sequence of human TLR7 (represented by the EMBL sequence AF240467) was cloned into the mammalian cell expression vector pUNO and transfected into this reporter cell-line. Transfectants with stable expression were selected using the antibiotic blasticidin. In this reporter cell-line, expression of secreted alkaline phosphatase (SEAP) is controlled by an NFkB/ELAM-1 composite promoter comprising five NFkB sites combined with the proximal ELAM-1 promoter. TLR signaling leads to the translocation of NFkB and activation of the promoter results in expression of the SEAP gene. TLR7-specific activation was assessed by determining the level of SEAP produced following overnight incubation of the cells at 37° C. with the standard compound in the presence of 0.1% (v/v) dimethylsulfoxide (DMSO). Concentration dependent induction of SEAP production by compounds was expressed as the concentration of compound which produced half of the maximal level of SEAP induction for that compound (pEC50).
A word on the EC50: it is the concentration needed to bring the measured effect to its halfway point. As to `CCCCOc1nc(N)c2[nH]c(=O)n(CCCN(Cc3ccccc3)C(=O)COC)c2n1` [Example 2, N-[3-(6-Amino-2-butoxy-8-oxo-7,8-dihydro-9H-purin-9-yl)propyl]-N-benzyl-2-methoxyacetamide], the concentration for a half-maximal effect (EC50) is 50.1 nM.

Regarding `CCCCOc1nc(N)c2[nH]c(=O)n(CCCN(Cc3ccccc3)C(=O)CN3CCN(Cc4ccccc4)CC3)c2n1` [Example 7, N-[3-(6-Amino-2-butoxy-8-oxo-7,8-dihydro-9H-purin-9-yl)propyl]-N-benzyl-2-(4-benzylpiperazin-1-yl)acetamide], the half-maximal effective concentration (EC50) was 7.94 nM.

For the compound `CCCCOc1nc(N)c2[nH]c(=O)n(CCCN(Cc3ccccc3)C(C)=O)c2n1` [Example 1, N-[3-(6-Amino-2-butoxy-8-oxo-7,8-dihydro-9H-purin-9-yl)propyl]-N-benzylacetamide], the EC50 was 63.1 nM.

For `CCCCOc1nc(N)c2[nH]c(=O)n(CCCN(Cc3ccccc3)C(=O)CCc3cnccn3)c2n1` [Example 9, N-[3-(6-Amino-2-butoxy-8-oxo-7,8-dihydro-9H-purin-9-yl)propyl]-N-benzyl-3-pyrazin-2-ylpropanamide], the EC50 is 50.1 nM.

On to `CCCCOc1nc(N)c2[nH]c(=O)n(CCCN(Cc3ccccc3)C(=O)CCC(=O)OC)c2n1` [Example 3, Methyl 4-[[3-(6-amino-2-butoxy-8-oxo-7,8-dihydro-9H-purin-9-yl)propyl](benzyl)amino]-4-oxobutanoate], for which the concentration giving a half-maximal response (EC50) was 39.8 nM.

Consider `CCCCOc1nc(N)c2[nH]c(=O)n(CCCN(Cc3ccccc3)C(=O)Cn3nc(C)nc3C)c2n1` [Example 8, N-[3-(6-Amino-2-butoxy-8-oxo-7,8-dihydro-9H-purin-9-yl)propyl]-N-benzyl-2-(3,5-dimethyl-1H-1,2,4-triazol-1-yl)acetamide], for which the concentration for a half-maximal effect (EC50) was 158 nM.

As for `CCCCOc1nc(N)c2[nH]c(=O)n(CCCN(Cc3ccccc3)C(=O)CCC(=O)N(C)C)c2n1` [Example 5, N-[3-(6-Amino-2-butoxy-8-oxo-7,8-dihydro-9H-purin-9-yl)propyl]-N-benzyl-N′,N′-dimethylsuccinamide], the EC50 is 79.4 nM.

`CCCCOc1nc(N)c2[nH]c(=O)n(CCCN(Cc3ccccc3)C(=O)CCN(C)C)c2n1` [Example 10, N-[3-(6-Amino-2-butoxy-8-oxo-7,8-dihydro-9H-purin-9-yl)propyl]-N-benzyl-N^3,N^3-dimethyl-β-alaninamide]: the EC50 is 31.6 nM.

For the compound `CCCCOc1nc(N)c2[nH]c(=O)n(CCCN(Cc3ccccc3)C(=O)Cc3ccc(S(C)(=O)=O)cc3)c2n1` [Example 6, N-[3-(6-Amino-2-butoxy-8-oxo-7,8-dihydro-9H-purin-9-yl)propyl]-N-benzyl-2-[4-(methylsulfonyl)phenyl]acetamide], the EC50 was 79.4 nM.

`CCCCOc1nc(N)c2[nH]c(=O)n(CCCN(Cc3ccccc3)C(=O)CCOC)c2n1` [Example 4, N-[3-(6-Amino-2-butoxy-8-oxo-7,8-dihydro-9H-purin-9-yl)propyl]-N-benzyl-3-methoxypropanamide]: the EC50 was 79.4 nM.
